According to paper PMC11945486, “TAS1R2/TAS1R3 Single-Nucleotide Polymorphisms Affect Sweet Taste Receptor Activation by Sweeteners: The SWEET Project” (Nutrients, 2025):

Target: T1, human TAS1R2-I234V (subunit alone) (Homo sapiens, UniProt Q8TE23, I234V)
T1 construct: expressed in transfected cells; host or cells: HEK293T-Gα16gust44
T1 sequence (Q8TE23 20-839 I234V): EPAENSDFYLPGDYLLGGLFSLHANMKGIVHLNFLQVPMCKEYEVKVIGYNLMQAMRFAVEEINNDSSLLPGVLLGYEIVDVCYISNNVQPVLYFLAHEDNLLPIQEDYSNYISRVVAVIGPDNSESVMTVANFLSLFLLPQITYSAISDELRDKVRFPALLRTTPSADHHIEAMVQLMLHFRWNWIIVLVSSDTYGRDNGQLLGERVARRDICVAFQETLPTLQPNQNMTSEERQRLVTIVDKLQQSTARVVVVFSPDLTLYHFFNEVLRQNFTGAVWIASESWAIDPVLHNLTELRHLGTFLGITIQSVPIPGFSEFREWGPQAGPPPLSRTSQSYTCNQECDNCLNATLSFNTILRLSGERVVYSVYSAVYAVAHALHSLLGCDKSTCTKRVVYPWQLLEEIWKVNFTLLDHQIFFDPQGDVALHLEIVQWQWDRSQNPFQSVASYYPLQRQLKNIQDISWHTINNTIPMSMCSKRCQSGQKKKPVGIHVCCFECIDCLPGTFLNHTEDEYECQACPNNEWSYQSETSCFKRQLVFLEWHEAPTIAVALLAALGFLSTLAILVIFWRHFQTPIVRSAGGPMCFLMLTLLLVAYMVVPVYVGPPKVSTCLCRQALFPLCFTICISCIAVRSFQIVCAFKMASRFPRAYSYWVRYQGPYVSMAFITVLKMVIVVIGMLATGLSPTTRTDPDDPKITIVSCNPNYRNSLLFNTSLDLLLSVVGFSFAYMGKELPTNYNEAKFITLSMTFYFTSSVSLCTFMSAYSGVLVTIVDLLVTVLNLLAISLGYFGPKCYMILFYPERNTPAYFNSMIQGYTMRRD
Experiment: Calcium mobilisation assay, TAS1R2-I234V subunit alone
Assay type: cell-based
Source text: The coding sequences for TAS1R2 and TAS1R3 were commercially synthesised, and the human codon was optimised for expression in human cells. The coding sequences of human TAS1R2 and TAS1R3 were subcloned and inserted into the mammalian expression vectors pcDNA6/myc-HisA and pcDNA4/myc-HisA (Invitrogen; Thermo Fisher Scientific; Illkirch, France) between the EcoRI and NotI restriction sites, generating the plasmids pcDNA6-TAS1R2 and pcDNA4-TAS1R3, respectively. To increase protein expression in mammalian cells, an upstream start codon was used, which was a sequence called MAX, corresponding to the QBI SP163 element also described in pcDNA4-HisMax (Invitrogen; Thermo Fisher Scientific; Illkirch, France). To measure the expression level of the receptor by immunohistochemistry, we used the FLAG sequence ([…]) in the C-terminal position, which encodes the FLAG tag epitope. […]
The HEK293T cells were kindly provided by Jay P. Slack (Givaudan Flavors Corporation; Cincinnati, OH, USA). […] The fluorescence intensity was measured for 90 s (excitation 488 nm, emission 510 nm) in an automated fluorometric FlexStation®3 Multi-Mode microplate reader (Molecular Devices; San Jose, CA, USA). […] The Ca^2+ changes were expressed as fractional changes in fluorescent light intensity: ΔF/F = (F − F0)/F0, where F was the fluorescent light intensity at each point, and F0 was the value of emitted fluorescent light prior to stimulus application. To calculate dose–response relationships, the changes in fluorescence upon stimulus application were averaged, mock-subtracted and baseline-corrected. […] The half-maximal effective concentrations (EC50 values) and maximal signal amplitudes were calculated using SigmaPlot software (version 15.0) (Systat Software; San Jose, CA, USA).
For in vitro calcium mobilisation assay performed on hTAS1R2-SNPs, hTAS1R3-SNPs and mTAS1R3-I60T, 6 to 7 concentrations were tested for each sweet compound, plus buffer alone. All concentration–receptor combinations were measured in duplicate, and each experiment was repeated at least 4 times (8 wells/concentration). […]

EC50: 311 ± 24.6 µM
R1 = Variant EC50/WT EC50: 3.5
Max ΔF/F0 (maximal signal amplitude): 0.29 ± 0.01
Compound: C=C(C)[C@@H]1CC=C(/C=N/O)CC1 [Perillartine, perillartine]
